Laboratory results from patent publication US20220251141A1, “IMMUNOMODULATORS” (Bristol-Myers Squibb Company, priority 2019, published 2022).
Structures can show the parent of a compound that is named as a salt. Values belong to the compound of their own block, whether it stands above or below them. Numbered stars: 1 amine (or outer) side, 2 acyl side, 3 side chain; on linkers, the order of the positions; unused ones are H or OH. Bridge positions count the residues as written; N and C are the ends. Square brackets hold non-standard residues; d marks the D form. Peptide text beside a SMILES is read from it. * marks the point of attachment. Trp(1-CH2CO2Me) = COC(=O)Cn1cc(C[C@H](N)C(=O)O)c2ccccc21; Trp(1-CH2COOH) = N[C@@H](Cc1cn(CC(=O)O)c2ccccc12)C(=O)O; X2 = C/C(=N\C#N)NC[C@H](N[*:1])C(=O)[*:2]; Octyloxycarbonyl = CCCCCCCCOC(=O)*; Hexyloxycarbonyl = CCCCCCOC(=O)*; Hyp = O=C(O)[C@@H]1C[C@@H](O)CN1; Myristoyl = CCCCCCCCCCCCCC(=O)*; NMeNle = CCCC[C@H](NC)C(=O)O; Decanoyl = CCCCCCCCCC(=O)*; Ethoxycarbonyl = CCOC(=O)*; NMeA = CN[C@@H](C)C(=O)O; Dab = NCC[C@H](N)C(=O)O; X13 = CCCCCCCCCCOC(=O)*; Dap = NC[C@H](N)C(=O)O; Hexanoyl = CCCCCC(=O)*; Boc = CC(C)(C)OC(=O)*; Tfa = O=C(C(F)(F)F)*; X3 = O=C(OCCF)*

Target: T1, PD-1/PD-L1 (Homo sapiens, UniProt Q9NZQ7)
T1 construct: TVMV protease site linker (C); made in house; host or cells: HEK293T cells
Test: PD-1/PD-L1 Homogenous Time-Resolved Fluorescence (HTRF) binding assay
Settings: PD-L1-His 10 nM final, PD-1-Ig 20 nM final; inhibitors pre-incubated with PD-L1-His for 15 m
From the text: The ability of the compounds of formula (I) to bind to PD-L1 was investigated using a PD-1/PD-L1 Homogenous Time-Resolved Fluorescence (HTRF) binding assay.
The interaction of PD-1 and PD-L1 can be assessed using soluble, purified preparations of the extracellular domains of the two proteins. The PD-1 and PD-L1 protein extracellular domains were expressed as fusion proteins with detection tags, for PD-1, the tag was the Fc portion of Immunoglobulin (PD-1-Ig) and for PD-L1 it was the 6 histidine motif (PD-L1-His). All binding studies were performed in an HTRF assay buffer consisting of dPBS supplemented with 0.1% […] bovine serum albumin and 0.05% (v/v) Tween-20. For the h/PD-L1-His binding assay, inhibitors were pre-incubated with PD-L1-His (10 nM final) for 15 m in 4 μl of assay buffer, followed by addition of PD-1-Ig (20 nM final) in 1 μl of assay buffer and further incubation for 15 m. HTRF detection was achieved using europium cryptate-labeled anti-Ig (1 nM final) and allophycocyanin (APC) labeled anti-His (20 nM final). Antibodies were diluted in HTRF detection buffer and 5 μl was dispensed on top of the binding reaction. The reaction mixture was allowed to equilibrate for 30 minutes and the resulting signal (665 nm/620 nm ratio) was obtained using an EnVision fluorometer. Additional binding assays were established between the human proteins PD-1-Ig/PD-L2-His (20 & 5 nM, respectively) and CD80-His/PD-L1-Ig (100 & 10 nM, respectively).
Recombinant Proteins: Human PD-1 (25-167) with a C-terminal human Fc domain of immunoglobulin G (Ig) epitope tag [hPD-1 (25-167)-3S-IG] and human PD-L1 (18-239) with a C-terminal His epitope tag [hPD-L1(18-239)-TVMV-His] were expressed in HEK293T cells and purified sequentially by Protein A affinity chromatography and size exclusion chromatography. Human PD-L2-His and CD80-His was obtained through commercial sources.
Table 3 lists the IC50 values for representative examples of this disclosure measured in the PD-1/PD-L1 Homogenous Time-Resolved Fluorescence (HTRF) binding assay.

Compound: CCCCCCCCCC(=O)NCC[C@@H]1NC(=O)[C@H](Cc2c[nH]c3ccccc23)NC(=O)[C@@H]2C[C@@H](O)CN2C(=O)[C@H](CC(C)C)NC(=O)[C@H](CNC(=O)CCCCCCCCC)NC(=O)[C@@H]2CCCN2C(=O)[C@H](CC(N)=O)NC(=O)[C@H](C)N(C)C(=O)[C@H](Cc2ccc(O)cc2)NC(=O)CSC[C@@H](C(=O)NCC(N)=O)NC(=O)[C@H](CC(C)C)NC(=O)[C@H](CCCC)N(C)C(=O)[C@H](CCCC)N(C)C(=O)[C@H](Cc2cn(CC(=O)O)c3ccccc23)NC1=O [Example 1003] ({CH2CO}-Y[NMeA]NP[Dap](Decanoyl)L[Hyp]W[Dab](Decanoyl)[Trp(1-CH2COOH)][NMeNle][NMeNle]LCG-NH2; thioether N-14)
IC50: 37 nM

Compound: CCCCCCCCCC(=O)NCC[C@@H]1NC(=O)[C@H](Cc2c[nH]c3ccccc23)NC(=O)[C@@H]2C[C@@H](O)CN2C(=O)[C@H](CC(C)C)NC(=O)[C@H](CNC(=O)CCCCCCCCC)NC(=O)[C@@H]2CCCN2C(=O)[C@H](CC(N)=O)NC(=O)[C@H](C)N(C)C(=O)[C@H](Cc2ccc(O)cc2)NC(=O)CSC[C@@H](C(=O)NCC(N)=O)NC(=O)[C@H](CC(C)C)NC(=O)[C@H](CCCC)N(C)C(=O)[C@H](CCCC)N(C)C(=O)[C@H](Cc2cn(CC(=O)OC)c3ccccc23)NC1=O [Example 1004] ({CH2CO}-Y[NMeA]NP[Dap](Decanoyl)L[Hyp]W[Dab](Decanoyl)[Trp(1-CH2CO2Me)][NMeNle][NMeNle]LCG-NH2; thioether N-14)
IC50: > 10000 nM

Compound: CCCCCCCCCCCCCC(=O)NCC[C@@H]1NC(=O)[C@H](Cc2c[nH]c3ccccc23)NC(=O)[C@@H]2C[C@@H](O)CN2C(=O)[C@H](CC(C)C)NC(=O)[C@H](CNC(=O)CCCCCCCCCCCCC)NC(=O)[C@@H]2CCCN2C(=O)[C@H](CC(N)=O)NC(=O)[C@H](C)N(C)C(=O)[C@H](Cc2ccc(O)cc2)NC(=O)CSC[C@@H](C(=O)NCC(N)=O)NC(=O)[C@H](CC(C)C)NC(=O)[C@H](CCCC)N(C)C(=O)[C@H](CCCC)N(C)C(=O)[C@H](Cc2cn(CC(=O)OC)c3ccccc23)NC1=O [Example 1005] ({CH2CO}-Y[NMeA]NP[Dap](Myristoyl)L[Hyp]W[Dab](Myristoyl)[Trp(1-CH2CO2Me)][NMeNle][NMeNle]LCG-NH2; thioether N-14)
IC50: > 10000 nM

Compound: CCCC[C@H]1C(=O)N(C)[C@@H](CCCC)C(=O)N[C@@H](CC(C)C)C(=O)N[C@H](C(=O)NCC(N)=O)CSCC(=O)N[C@@H](Cc2ccc(O)cc2)C(=O)N(C)[C@@H](C)C(=O)N[C@@H](CC(N)=O)C(=O)N2CCC[C@H]2C(=O)N[C@@H](CNC(=O)C(F)(F)F)C(=O)N[C@@H](CC(C)C)C(=O)N2C[C@H](O)C[C@H]2C(=O)N[C@@H](Cc2c[nH]c3ccccc23)C(=O)N[C@@H](CCNC(=O)C(F)(F)F)C(=O)N[C@@H](Cc2cn(CC(=O)O)c3ccccc23)C(=O)N1C [Example 1007] ({CH2CO}-Y[NMeA]NP[Dap](Tfa)L[Hyp]W[Dab](Tfa)[Trp(1-CH2COOH)][NMeNle][NMeNle]LCG-NH2; thioether N-14)
IC50: 3.3 nM

Compound: CCCC[C@H]1C(=O)N(C)[C@@H](CCCC)C(=O)N[C@@H](CC(C)C)C(=O)N[C@H](C(=O)NCC(N)=O)CSCC(=O)N[C@@H](Cc2ccc(O)cc2)C(=O)N(C)[C@@H](C)C(=O)N[C@@H](CC(N)=O)C(=O)N2CCC[C@H]2C(=O)N[C@@H](CN/C(C)=N/C#N)C(=O)N[C@@H](CC(C)C)C(=O)N2C[C@H](O)C[C@H]2C(=O)N[C@@H](Cc2c[nH]c3ccccc23)C(=O)N[C@@H](CCN)C(=O)N[C@@H](Cc2cn(CC(=O)O)c3ccccc23)C(=O)N1C [Example 1009] ({CH2CO}-Y[NMeA]NP[X2]L[Hyp]W[Dab][Trp(1-CH2COOH)][NMeNle][NMeNle]LCG-NH2; thioether N-14)
IC50: 5.5 nM

Compound: CCCCCCCCCCOC(=O)NCC[C@@H]1NC(=O)[C@H](Cc2c[nH]c3ccccc23)NC(=O)[C@@H]2C[C@@H](O)CN2C(=O)[C@H](CC(C)C)NC(=O)[C@H](CNC(=O)OCCCCCCCCCC)NC(=O)[C@@H]2CCCN2C(=O)[C@H](CC(N)=O)NC(=O)[C@H](C)N(C)C(=O)[C@H](Cc2ccc(O)cc2)NC(=O)CSC[C@@H](C(=O)NCC(N)=O)NC(=O)[C@H](CC(C)C)NC(=O)[C@H](CCCC)N(C)C(=O)[C@H](CCCC)N(C)C(=O)[C@H](Cc2cn(CC(=O)OC)c3ccccc23)NC1=O [Example 1015] ({CH2CO}-Y[NMeA]NP[Dap](X13)L[Hyp]W[Dab](X13)[Trp(1-CH2CO2Me)][NMeNle][NMeNle]LCG-NH2; thioether N-14)
IC50: > 10000 nM

Next, values leading:

IC50: 22 nM
Compound: CCCCCC(=O)NCC[C@@H]1NC(=O)[C@H](Cc2c[nH]c3ccccc23)NC(=O)[C@@H]2C[C@@H](O)CN2C(=O)[C@H](CC(C)C)NC(=O)[C@H](CNC(=O)CCCCC)NC(=O)[C@@H]2CCCN2C(=O)[C@H](CC(N)=O)NC(=O)[C@H](C)N(C)C(=O)[C@H](Cc2ccc(O)cc2)NC(=O)CSC[C@@H](C(=O)NCC(N)=O)NC(=O)[C@H](CC(C)C)NC(=O)[C@H](CCCC)N(C)C(=O)[C@H](CCCC)N(C)C(=O)[C@H](Cc2cn(CC(=O)OC)c3ccccc23)NC1=O [Example 1006] ({CH2CO}-Y[NMeA]NP[Dap](Hexanoyl)L[Hyp]W[Dab](Hexanoyl)[Trp(1-CH2CO2Me)][NMeNle][NMeNle]LCG-NH2; thioether N-14)

IC50: 3.9 nM
Compound: CCCC[C@H]1C(=O)N(C)[C@@H](CCCC)C(=O)N[C@@H](CC(C)C)C(=O)N[C@H](C(=O)NCC(N)=O)CSCC(=O)N[C@@H](Cc2ccc(O)cc2)C(=O)N(C)[C@@H](C)C(=O)N[C@@H](CC(N)=O)C(=O)N2CCC[C@H]2C(=O)N[C@@H](CNC(=O)OCC)C(=O)N[C@@H](CC(C)C)C(=O)N2C[C@H](O)C[C@H]2C(=O)N[C@@H](Cc2c[nH]c3ccccc23)C(=O)N[C@@H](CCNC(=O)OCC)C(=O)N[C@@H](Cc2cn(CC(=O)OC)c3ccccc23)C(=O)N1C [Example 1010] ({CH2CO}-Y[NMeA]NP[Dap](Ethoxycarbonyl)L[Hyp]W[Dab](Ethoxycarbonyl)[Trp(1-CH2CO2Me)][NMeNle][NMeNle]LCG-NH2; thioether N-14)

IC50: 19 nM
Compound: CCCC[C@H]1C(=O)N(C)[C@@H](CCCC)C(=O)N[C@@H](CC(C)C)C(=O)N[C@H](C(=O)NCC(N)=O)CSCC(=O)N[C@@H](Cc2ccc(O)cc2)C(=O)N(C)[C@@H](C)C(=O)N[C@@H](CC(N)=O)C(=O)N2CCC[C@H]2C(=O)N[C@@H](CNC(=O)OCCF)C(=O)N[C@@H](CC(C)C)C(=O)N2C[C@H](O)C[C@H]2C(=O)N[C@@H](Cc2c[nH]c3ccccc23)C(=O)N[C@@H](CCNC(=O)OCCF)C(=O)N[C@@H](Cc2cn(CC(=O)OC)c3ccccc23)C(=O)N1C [Example 1012] ({CH2CO}-Y[NMeA]NP[Dap](X3)L[Hyp]W[Dab](X3)[Trp(1-CH2CO2Me)][NMeNle][NMeNle]LCG-NH2; thioether N-14)

IC50: 1100 nM
Compound: CCCCCCCCOC(=O)NCC[C@@H]1NC(=O)[C@H](Cc2c[nH]c3ccccc23)NC(=O)[C@@H]2C[C@@H](O)CN2C(=O)[C@H](CC(C)C)NC(=O)[C@H](CNC(=O)OCCCCCCCC)NC(=O)[C@@H]2CCCN2C(=O)[C@H](CC(N)=O)NC(=O)[C@H](C)N(C)C(=O)[C@H](Cc2ccc(O)cc2)NC(=O)CSC[C@@H](C(=O)NCC(N)=O)NC(=O)[C@H](CC(C)C)NC(=O)[C@H](CCCC)N(C)C(=O)[C@H](CCCC)N(C)C(=O)[C@H](Cc2cn(CC(=O)OC)c3ccccc23)NC1=O [Example 1013] ({CH2CO}-Y[NMeA]NP[Dap](Octyloxycarbonyl)L[Hyp]W[Dab](Octyloxycarbonyl)[Trp(1-CH2CO2Me)][NMeNle][NMeNle]LCG-NH2; thioether N-14)

IC50: 6.1 nM
Compound: CCCC[C@H]1C(=O)N(C)[C@@H](CCCC)C(=O)N[C@@H](CC(C)C)C(=O)N[C@H](C(=O)NCC(N)=O)CSCC(=O)N[C@@H](Cc2ccc(O)cc2)C(=O)N(C)[C@@H](C)C(=O)N[C@@H](CC(N)=O)C(=O)N2CCC[C@H]2C(=O)N[C@@H](CNC(=O)OC(C)(C)C)C(=O)N[C@@H](CC(C)C)C(=O)N2C[C@H](O)C[C@H]2C(=O)N[C@@H](Cc2c[nH]c3ccccc23)C(=O)N[C@@H](CCNC(=O)OC(C)(C)C)C(=O)N[C@@H](Cc2cn(CC(=O)O)c3ccccc23)C(=O)N1C [Example 1014] ({CH2CO}-Y[NMeA]NP[Dap](Boc)L[Hyp]W[Dab](Boc)[Trp(1-CH2COOH)][NMeNle][NMeNle]LCG-NH2; thioether N-14)

IC50: 12 nM
Compound: CCCCCCOC(=O)NCC[C@@H]1NC(=O)[C@H](Cc2c[nH]c3ccccc23)NC(=O)[C@@H]2C[C@@H](O)CN2C(=O)[C@H](CC(C)C)NC(=O)[C@H](CNC(=O)OCCCCCC)NC(=O)[C@@H]2CCCN2C(=O)[C@H](CC(N)=O)NC(=O)[C@H](C)N(C)C(=O)[C@H](Cc2ccc(O)cc2)NC(=O)CSC[C@@H](C(=O)NCC(N)=O)NC(=O)[C@H](CC(C)C)NC(=O)[C@H](CCCC)N(C)C(=O)[C@H](CCCC)N(C)C(=O)[C@H](Cc2cn(CC(=O)OC)c3ccccc23)NC1=O [Example 1016] ({CH2CO}-Y[NMeA]NP[Dap](Hexyloxycarbonyl)L[Hyp]W[Dab](Hexyloxycarbonyl)[Trp(1-CH2CO2Me)][NMeNle][NMeNle]LCG-NH2; thioether N-14)
